# Data taken from patent US11390621B2, “Chiral indole compounds and their use” (ARIAGEN, INC., priority 2019, dated 2022).
# Values joined by “and” are separate entries in the source; they are usually repeats but may differ in a detail not shown here. Identical values can stand only once.
# Columns and labels:
# Type in all cases: in vitro ADME
# [1] = CYP profiling: turnover in human liver microsomes, 30 min, no inhibitor; design: % Compound Metabolized at 30 min, No Inhibitor: concentration or dose not given beside the values; conditions: HLMs
# Experimental: (§1) In order to investigate the contributions of CYP1A2 and CYP3A4 to the metabolism of the compounds of the present disclosure, human liver microsomes were incubated with the test compounds for 30 minutes in the presence of selective chemical inhibitors furafylline (1A2) and ketoconazole (3A4).
# CYP1A2 = target: T1, CYP1A2 (Homo sapiens, UniProt P05177); test: CYP profiling: human liver microsomes with CYP1A2 inhibitor furafylline; design: % Compound Metabolized at 30 min, CYP1A2 Inhibitor: concentration or dose not given beside the values; conditions: HLMs; for % Inhibition Relative to Negative Control, 1A2: 30 min
# T1 construct: from tissue; host or cells: human liver microsomes
# T1 sequence (P05177 1-516): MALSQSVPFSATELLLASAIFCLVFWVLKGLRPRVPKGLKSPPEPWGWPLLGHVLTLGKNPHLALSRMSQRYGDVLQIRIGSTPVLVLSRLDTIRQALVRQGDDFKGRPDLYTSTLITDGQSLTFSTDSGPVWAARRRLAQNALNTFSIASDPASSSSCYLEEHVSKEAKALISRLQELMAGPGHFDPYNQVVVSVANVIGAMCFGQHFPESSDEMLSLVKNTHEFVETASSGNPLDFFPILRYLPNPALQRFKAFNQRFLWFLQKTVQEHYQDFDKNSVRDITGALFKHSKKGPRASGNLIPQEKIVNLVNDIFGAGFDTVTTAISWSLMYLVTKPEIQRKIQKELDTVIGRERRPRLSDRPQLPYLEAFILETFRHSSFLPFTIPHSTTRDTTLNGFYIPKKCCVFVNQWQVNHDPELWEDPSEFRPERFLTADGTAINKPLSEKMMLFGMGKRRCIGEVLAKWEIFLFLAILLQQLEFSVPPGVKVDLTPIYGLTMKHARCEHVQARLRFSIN
# Experimental: as §1
# CYP3A4 = target: T2, CYP3A4 (Homo sapiens, UniProt P08684); test: CYP profiling: human liver microsomes with CYP3A4 inhibitor ketoconazole; design: % Compound Metabolized at 30 min, CYP3A4 Inhibitor: concentration or dose not given beside the values; conditions: HLMs; for % Inhibition Relative to Negative Control, 3A4: 30 min
# T2 construct: from tissue; host or cells: human liver microsomes
# T2 sequence (P08684 whole entry): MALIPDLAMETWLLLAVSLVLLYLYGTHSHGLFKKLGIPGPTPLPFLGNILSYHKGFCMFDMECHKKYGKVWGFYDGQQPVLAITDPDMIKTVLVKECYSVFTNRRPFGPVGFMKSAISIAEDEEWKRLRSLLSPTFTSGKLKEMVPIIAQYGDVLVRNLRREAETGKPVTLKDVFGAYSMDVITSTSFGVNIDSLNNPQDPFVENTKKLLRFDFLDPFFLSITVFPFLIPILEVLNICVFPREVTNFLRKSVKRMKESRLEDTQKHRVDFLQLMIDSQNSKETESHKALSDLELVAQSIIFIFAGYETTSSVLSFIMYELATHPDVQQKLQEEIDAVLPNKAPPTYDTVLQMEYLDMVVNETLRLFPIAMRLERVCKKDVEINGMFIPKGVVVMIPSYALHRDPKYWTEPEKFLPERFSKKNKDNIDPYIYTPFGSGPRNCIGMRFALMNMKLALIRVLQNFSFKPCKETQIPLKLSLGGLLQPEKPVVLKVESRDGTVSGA
# Experimental: as §1
# [2] = Hepatocyte intrinsic clearance assay (metabolic stability), human hepatocytes; conditions: male, human, cryopreserved pooled hepatocytes, Human Hepatocytes, 1 μM test compound
# Text: (§2) The liver is an important organ in the body for drug metabolism. This Example describes hepatocyte intrinsic clearance assays using both human and rat hepatocytes to evaluate the metabolic stability of the indole compounds disclosed herein. The parameters measured include t1/2 (half-life), CLint (intrinsic clearance), and EH (hepatic extraction ratio).
# (§3) Testosterone (Lot FE111011-01) was obtained from Cerilliant (Round Rock, Tex.). 7-hydroxycoumarin (Lot 11631ED) was obtained from Sigma Aldrich (St. Louis, Mo.). Cryopreserved human hepatocytes pooled from ten donor males (X008001), cryopreserved male IRC/CD-1 mouse hepatocytes (M005052), INVITROGRO HI Medium (incubation), and INVITROGRO HT Medium (thawing) were obtained from Bioreclamation IVT (Baltimore, Md.). All solvents were obtained from commercial sources and used without further purification.
# (§4) Each test compound was prepared as a 1 mM stock solution in DMSO. A 2 μM solution of test compound and positive controls were prepared in INVITROGRO HI Medium (incubation). These solutions were pre-warmed in a sterile incubator set to maintain 37° C., 5% CO2, and 98% humidity. Cryopreserved hepatocytes were prepared at a concentration of 2×10^6 living cells/mL in incubation media and pre-warmed in the incubator. The compound solutions and hepatocyte mixtures were then combined at a ratio of 1:1 (v:v). The final volume of the reaction mixture was 750 μL, containing 1 μM test compound (10 μM for 7-hydroxycoumarin) and […]. The reaction mixture was placed in the incubator on a plate shaker. After 0, 15, 30, 60, 90, and 120 minutes of incubation, 100 μL of reaction mixtures were removed from the incubation plate and mixed with 150 μL of ice-cold acetonitrile in a designated well of a 96-well crash plate. The 96-well crash plate was placed on ice for 15 min, and samples were centrifuged (3,600 RPM, 10 min, 4° C.) to precipitate protein. The supernatants were diluted 1:1 (v:v) with water containing 0.15 μM verapamil and/or 1 μM tolbutamide (internal standards for positive and negative modes, respectively) in a 96-well shallow injection plate. This plate was sealed for LC-MS analysis. All measurements were done in duplicate.
# (§5) The residual compound remaining (% R) was determined from LC-MS peak areas by comparison to the zero time point. Metabolic half-life (t1/2) and intrinsic clearance (CLint) values were calculated from the slope of the plot of ln (% R) vs. time and the concentration of hepatocytes present in the incubation. Percent remaining at 60 minutes was calculated by plugging in the 60 minute value into the slope equation generated by the percent remaining time points.
# (§6) In vivo hepatic clearance CLH was calculated using the well stirred liver model according to the following equation:
# (§7) [formula] where QH is the total liver blood flow, fu is unbound fraction of the drug, and CL′int is defined as follows: CL′int=CLint×(10^6 cells/g of liver weight)×(g liver weight/kg of body weight). In the first approximation, used in this study, fu=1.
# (§8) Hepatic extraction ratio EH was calculated using the following equation:
# (§9) [formula] Corresponding physiological parameters used in calculations for all species are shown below in Table 3.
# human hepatocytes = test: as above; conditions: Human Hepatocytes; well stirred liver model, fu=1
# Text: as §2, §3, §4, §5, §6, §7, §8, §9
# [3] = Hepatocyte intrinsic clearance assay (metabolic stability), rat hepatocytes; conditions: rat, cryopreserved hepatocytes, Rat Hepatocytes, 1 μM test compound
# Text: as §2, §3, §4, §5, §6, §7, §8, §9
# rat hepatocytes = test: as above; conditions: Rat Hepatocytes; well stirred liver model, fu=1
# Text: as §2, §3, §4, §5, §6, §7, §8, §9
Structure (SMILES),"% Compound Metabolized at 30 min, No Inhibitor [1]","% Compound Metabolized at 30 min, CYP1A2 Inhibitor (CYP1A2)","% Inhibition Relative to Negative Control, 1A2 (CYP1A2)","% Compound Metabolized at 30 min, CYP3A4 Inhibitor (CYP3A4)","% Inhibition Relative to Negative Control, 3A4 (CYP3A4)",half-life at 1 μM [2] [h],hepatocyte CLint at 1 μM [2] [µL/min/1e6 cells],EH (hepatic extraction ratio) (human hepatocytes) [%],half-life at 1 μM [3] [h],hepatocyte CLint at 1 μM [3] [µL/min/1e6 cells],EH (hepatic extraction ratio) (rat hepatocytes) [%]
CCOc1ccc(NC(C)=O)cc1 [Phenacitin],36% and 31%,3% and 1%,92% and 97%,23%,36%,,,,,,
Cc1ncc2n1-c1ccc(Cl)cc1C(c1ccccc1F)=NC2 [Midazolam],98% and 97%,96%,2%,1% and 0%,99% and 100%,,,,,,
NC(c1csc(C(=O)c2c[nH]c3ccccc23)n1)C(F)(F)F (stereo not drawn) [ARI-100],2%,0%,100%,8%,None,46.1,0.251,1.9,1.3,8.73,36.9
